Where two headings read alike, the source gives them in different places.
How the values were obtained:
[1] = test system: morphine-induced pruritus mice; test: Inhibitory effect for pruritus in morphine-induced pruritus mice; assay type: in vivo, male ddY mice; settings: oral, dose of 30 mg/kg or less, 30 minutes before intrathecal morphine (1 nmol/5 μL); scratching counted for 30 minutes
Protocol: Morphine (1 nmol/5 μL, dissolved in physiological saline) or physiological saline was intrathecally administered between the fifth and sixth lumbar vertebrae of male ddY mice using a microsyringe fitted with a 30-gauge injection needle. Mice administered with only morphine were used as a control group, and mice administered with only physiological saline as a physiological saline-administered group.
After the morphine administration, the number of scratching behavior with the hind legs which observed immediately in the mice was measured for 30 minutes. Because mice show a rapid, continuous scratching behavior in each scratching behavior, a series of such behavior was counted as a single scratching behavior.
The test compounds were administered 30 minutes before the morphine administration. Each test compound was suspended in a 0.5% methylcellulose solution, and orally administered in 10 mL/kg volume.

[2] = molecular target: T1, human Cav3.2 T-type Ca2+ channel (Homo sapiens, UniProt O95180); test: Inhibitory effect for intracellular calcium response via Cav3.2 T-type Ca2+ channels (FLIPR Calcium 3 Assay Kit); assay type: cell-based
T1 construct: expressed in transfected cells; host or cells: KJMGER8 cells (Namalwa cell-derived cell line)
T1 sequence (O95180 whole entry): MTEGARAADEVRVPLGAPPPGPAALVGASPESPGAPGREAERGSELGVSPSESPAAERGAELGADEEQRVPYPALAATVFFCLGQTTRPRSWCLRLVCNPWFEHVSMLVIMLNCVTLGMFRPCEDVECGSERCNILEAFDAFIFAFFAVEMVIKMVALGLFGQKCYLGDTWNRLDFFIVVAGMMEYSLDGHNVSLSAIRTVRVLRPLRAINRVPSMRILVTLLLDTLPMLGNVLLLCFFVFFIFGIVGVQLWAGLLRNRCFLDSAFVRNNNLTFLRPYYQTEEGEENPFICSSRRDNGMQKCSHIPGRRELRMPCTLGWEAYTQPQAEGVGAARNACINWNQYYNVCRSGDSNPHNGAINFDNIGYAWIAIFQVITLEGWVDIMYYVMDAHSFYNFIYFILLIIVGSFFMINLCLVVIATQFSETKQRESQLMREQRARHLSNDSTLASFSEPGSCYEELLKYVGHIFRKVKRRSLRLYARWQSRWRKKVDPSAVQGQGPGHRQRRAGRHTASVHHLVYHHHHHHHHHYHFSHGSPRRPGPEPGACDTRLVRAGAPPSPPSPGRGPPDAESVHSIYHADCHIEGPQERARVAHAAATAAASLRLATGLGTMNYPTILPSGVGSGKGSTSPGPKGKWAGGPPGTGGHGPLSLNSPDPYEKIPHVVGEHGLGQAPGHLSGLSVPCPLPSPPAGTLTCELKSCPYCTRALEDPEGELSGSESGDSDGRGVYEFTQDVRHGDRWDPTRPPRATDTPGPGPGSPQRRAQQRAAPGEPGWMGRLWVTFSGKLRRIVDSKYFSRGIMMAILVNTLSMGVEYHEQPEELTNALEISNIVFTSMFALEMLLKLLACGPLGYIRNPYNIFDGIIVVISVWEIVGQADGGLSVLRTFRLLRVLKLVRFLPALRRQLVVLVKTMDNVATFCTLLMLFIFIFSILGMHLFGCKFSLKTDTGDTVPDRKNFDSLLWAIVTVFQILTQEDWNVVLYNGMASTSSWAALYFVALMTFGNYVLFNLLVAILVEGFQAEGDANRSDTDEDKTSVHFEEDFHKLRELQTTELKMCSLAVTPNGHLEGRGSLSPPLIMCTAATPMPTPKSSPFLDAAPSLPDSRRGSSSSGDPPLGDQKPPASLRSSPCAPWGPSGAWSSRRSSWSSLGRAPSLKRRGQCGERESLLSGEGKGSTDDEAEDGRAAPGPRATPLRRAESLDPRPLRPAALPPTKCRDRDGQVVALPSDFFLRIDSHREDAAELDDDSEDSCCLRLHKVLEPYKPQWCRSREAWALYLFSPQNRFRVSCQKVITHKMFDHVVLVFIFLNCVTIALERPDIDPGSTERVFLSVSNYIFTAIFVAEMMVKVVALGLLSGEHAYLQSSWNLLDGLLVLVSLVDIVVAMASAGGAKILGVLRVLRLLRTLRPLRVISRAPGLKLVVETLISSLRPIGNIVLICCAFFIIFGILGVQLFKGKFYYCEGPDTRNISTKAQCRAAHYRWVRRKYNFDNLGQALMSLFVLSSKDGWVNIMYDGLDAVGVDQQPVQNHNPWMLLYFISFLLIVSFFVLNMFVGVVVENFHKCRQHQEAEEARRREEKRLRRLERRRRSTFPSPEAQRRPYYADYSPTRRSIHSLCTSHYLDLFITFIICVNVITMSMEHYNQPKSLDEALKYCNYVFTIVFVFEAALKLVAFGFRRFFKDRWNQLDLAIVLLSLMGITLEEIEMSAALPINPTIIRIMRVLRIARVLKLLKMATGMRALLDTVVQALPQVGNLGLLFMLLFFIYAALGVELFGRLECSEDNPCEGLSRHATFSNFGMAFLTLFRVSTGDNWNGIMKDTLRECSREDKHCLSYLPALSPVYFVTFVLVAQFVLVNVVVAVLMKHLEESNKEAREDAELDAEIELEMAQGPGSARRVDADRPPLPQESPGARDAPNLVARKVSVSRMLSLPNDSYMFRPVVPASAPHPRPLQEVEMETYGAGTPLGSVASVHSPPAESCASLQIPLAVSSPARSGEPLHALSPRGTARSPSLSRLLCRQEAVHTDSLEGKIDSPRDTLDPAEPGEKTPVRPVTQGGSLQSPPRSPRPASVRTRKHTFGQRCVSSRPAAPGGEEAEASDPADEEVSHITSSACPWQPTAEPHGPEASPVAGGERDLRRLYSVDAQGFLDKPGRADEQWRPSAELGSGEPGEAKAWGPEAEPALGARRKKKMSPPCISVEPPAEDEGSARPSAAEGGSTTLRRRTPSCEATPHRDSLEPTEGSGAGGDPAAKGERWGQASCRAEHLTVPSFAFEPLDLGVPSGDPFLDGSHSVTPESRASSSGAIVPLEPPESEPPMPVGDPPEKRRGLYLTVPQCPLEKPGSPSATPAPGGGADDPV

[3] = human Cav3.2-expressing KJMGER8 cells (Namalwa-derived), calcium response induced by 5 mmol/L CaCl2, normalised to 3 μmol/L mibefradil, read-out: IC50 for the human Cav3.2 T-type Ca2+ current

SMILES	increase of the scratching behavior observed in the morphine-induced pruritus mice [1]	IC50 [2]	IC50 [2, 3]
COC(C)(C)CNC(=O)c1cc(C)n2c(CC3CCC(F)(F)CC3)c(C(F)(F)F)nc2c1 [Compound 79, 3-(4,4-Difluorocyclohexylmethyl)-N-(2-methoxy-2-methylpropyl)-5-methyl-2-trifluoromethylimidazo[1,2-a]pyridine-7-carboxamide]	inhibited	< 100 nM	–
O=C(N[C@H]1CC[C@H](O)CC1)c1cc(Cl)n2c(CC3CCC(F)(F)CC3)c(C(F)(F)F)nc2c1 [Compound 103, 5-Chloro-3-(4,4-difluorocyclohexylmethyl)-N-(trans-4-hydroxycyclohexyl)-2-trifluoromethylimidazo[1,2-a]pyridine-7-carboxamide]	inhibited	< 100 nM	–
O=C(NC1CCOCC1)c1cc2nc(C3(C(F)(F)F)CC3)c(CC3CCC(F)(F)CC3)n2cc1Cl [Compound 110, 6-Chloro-3-(4,4-difluorocyclohexylmethyl)-N-(tetrahydro-2H-pyran-4-yl)-2-{1-(trifluoromethyl)cyclopropyl}imidazo[1,2-a]pyridine-7-carboxamide]	inhibited	< 100 nM	–
CC(C)(C)c1nc2cc(C(=O)NC3CCOCC3)c(Cl)cn2c1CC1CCC(F)(F)CC1 [Compound 113, 2-tert-Butyl-6-chloro-3-(4,4-difluorocyclohexylmethyl)-N-(tetrahydro-2H-pyran-4-yl)imidazo[1,2-a]pyridine-7-carboxamide]	inhibited	< 100 nM	–
O=C(Nc1ccncc1)c1ccn2c(CC3CCCCC3)c(C(F)(F)F)nc2c1 [Compound 35, 3-Cyclohexylmethyl-N-(pyridin-4-yl)-2-trifluoromethylimidazo[1,2-a]pyridine-7-carboxamide]	inhibited	< 100 nM	–
Cc1cc(C(=O)NC2CCC(O)CC2)cc2nc(C(F)(F)F)c(CC3CCC(F)(F)CC3)n12 (centres unmarked) [Compound 70, 3-(4,4-Difluorocyclohexylmethyl)-N-(4-hydroxycyclohexyl)-5-methyl-2-trifluoromethylimidazo[1,2-a]pyridine-7-carboxamide]	inhibited	< 100 nM	–
O=C(NC1CCC1)c1ccn2c(CC3CCC(F)(F)CC3)c(C(F)(F)F)nc2c1 [Compound 50, N-Cyclobutyl-3-(4,4-difluorocyclohexylmethyl)-2-trifluoromethylimidazo[1,2-a]pyridine-7-carboxamide]	inhibited	< 100 nM	–
CC(F)(F)c1nc2cc(C(=O)NC3CCOCC3)c(Cl)cn2c1CC1CCC(F)(F)CC1 [Compound 109, 6-Chloro-3-(4,4-difluorocyclohexylmethyl)-2-(1,1-difluoroethyl)-N-(tetrahydro-2H-pyran-4-yl)imidazo[1,2-a]pyridine-7-carboxamide]	inhibited	< 100 nM	–
CC(C)c1nc2cc(C(=O)Nc3ccccc3)ccn2c1S(=O)(=O)N1CC(F)(F)C1 [Compound 133, 3-(3,3-Difluoroazetidin-1-ylsulfonyl)-2-isopropyl-N-phenylimidazo[1,2-a]pyridine-7-carboxamide]	inhibited	–	< 100 nM
Cc1cc(C(=O)NCC2CCOC2)cc2nc(C(F)(F)F)c(CC3CCC(F)(F)CC3)n12 (centres unmarked) [Compound 80, 3-(4,4-Difluorocyclohexylmethyl)-N-{(tetrahydrofuran-3-yl)methyl}-5-methyl-2-trifluoromethylimidazo[1,2-a]pyridine-7-carboxamide]	inhibited	< 100 nM	–
Cc1cc(C(=O)NC2CCCOC2)cc2nc(C(F)(F)F)c(CC3CCC(F)(F)CC3)n12 (centres unmarked) [Compound 76, 3-(4,4-Difluorocyclohexylmethyl)-5-methyl-N-(tetrahydro-2H-pyran-3-yl)-2-trifluoromethylimidazo[1,2-a]pyridine-7-carboxamide]	inhibited	–	< 100 nM
CC(C)(C)c1nc2cc(C(=O)Nc3ccncc3)ccn2c1CC1CCC(F)(F)CC1 [Compound 34, 2-tert-Butyl-3-(4,4-difluorocyclohexylmethyl)-N-(pyridin-4-yl)imidazo[1,2-a]pyridine-7-carboxamide]	inhibited	< 100 nM	–
Cc1cc(C(=O)NC2CCOC2)cc2nc(C(F)(F)F)c(CC3CCC(F)(F)CC3)n12 (centres unmarked) [Compound 73, 3-(4,4-Difluorocyclohexylmethyl)-5-methyl-N-(tetrahydrofuran-3-yl)-2-trifluoromethylimidazo[1,2-a]pyridine-7-carboxamide]	inhibited	< 100 nM	–
CC1(c2nc3cc(C(=O)NC4CCOCC4)c(Cl)cn3c2CC2CCC(F)(F)CC2)CC1 [Compound 114, 6-Chloro-3-(4,4-difluorocyclohexylmethyl)-2-(1-methylcyclopropyl)-N-(tetrahydro-2H-pyran-4-yl)imidazo[1,2-a]pyridine-7-carboxamide]	inhibited	–	< 100 nM
Cc1cc(C(=O)NC2CCOCC2)cc2nc(C(C)(F)F)c(CC3CCC(F)(F)CC3)n12 [Compound 96, 3-(4,4-Difluorocyclohexylmethyl)-2-(1,1-difluoroethyl)-5-methyl-N-(tetrahydro-2H-pyran-4-yl)imidazo[1,2-a]pyridine-7-carboxamide]	inhibited	< 100 nM	–
Cc1cn2c(COC3CCCCC3)c(C(C)C)nc2cc1C(=O)Nc1ccncc1 [Compound 43, 3-Cyclohexyloxymethyl-2-isopropyl-6-methyl-N-(pyridin-4-yl)imidazo[1,2-a]pyridine-7-carboxamide]	inhibited	< 100 nM	–

Source: patent US9000186B2, “Ring-fused heterocyclic derivative” (Kyowa Hakko Kirin Co., Ltd., priority 2011, dated 2015)
